For 11 compounds, IC50 results are on record in US20050209278A1, “Piperidinyl- and piperazinyl-sulfonylmethyl hydroxamic acids and their use as protease inhibitors” (priority 2002, published 2005).

SMILES strings stand for the structures.

For the first test, the target named is T1, MMP-2 (Homo sapiens, UniProt P08253).
T1 construct: made in house; host or cells: MMP-2-transfected p2AHT2 cells
T1 sequence (P08253 110-660): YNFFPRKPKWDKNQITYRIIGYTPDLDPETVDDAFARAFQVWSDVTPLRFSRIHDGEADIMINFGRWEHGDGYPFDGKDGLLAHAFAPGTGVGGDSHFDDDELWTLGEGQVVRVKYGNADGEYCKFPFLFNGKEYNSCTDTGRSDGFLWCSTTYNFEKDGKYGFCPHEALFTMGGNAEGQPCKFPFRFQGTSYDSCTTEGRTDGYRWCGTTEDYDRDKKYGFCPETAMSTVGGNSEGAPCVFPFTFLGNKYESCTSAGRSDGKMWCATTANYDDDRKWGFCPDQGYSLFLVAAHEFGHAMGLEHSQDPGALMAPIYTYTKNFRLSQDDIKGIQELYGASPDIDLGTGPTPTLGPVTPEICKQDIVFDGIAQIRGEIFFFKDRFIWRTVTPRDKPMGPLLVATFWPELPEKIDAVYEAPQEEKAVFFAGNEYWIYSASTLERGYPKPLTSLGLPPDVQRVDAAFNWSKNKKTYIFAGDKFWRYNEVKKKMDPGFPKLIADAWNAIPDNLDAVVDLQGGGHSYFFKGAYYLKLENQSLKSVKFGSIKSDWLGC
As to the kind of experiment: In vitro MMP inhibition, IC50 determination (fluorogenic substrate I). The class given is biochemical. The note with it: value in parentheses; read-out: MMP-2 (IC-50).
As to `CCCCOc1ccc(N2CCN(S(=O)(=O)C3(C(=O)NO)CCN(C(=O)CCC)CC3)CC2)cc1` [Example 290], the IC50 was 59.5 nM.

Staying with this test, now noted: value in parenthesis; read-out: MMP-2 (IC-50).
As to `COCCN1CCC(C(=O)NO)(S(=O)(=O)N2CCN(c3ccc(C#N)cc3)CC2)CC1` [Example 186], the IC50 was 3.14 nM.

Regarding `CCC(CC)Cc1ccc(N2CCN(S(=O)(=O)C3(C(=O)NO)CCN(CCOC)CC3)CC2)cc1` [Example 188], the IC50 was 12.4 nM.

As to `CCOCCCc1ccc(N2CCN(S(=O)(=O)C3(C(=O)NO)CCN(CCOC)CC3)CC2)cc1` [Example 179], the IC50 was 1.02 nM.

As for `COCCN1CCC(C(=O)NO)(S(=O)(=O)N2CCN(c3ccc(CC4CCCCC4)cc3)CC2)CC1` [Example 181], the IC50 is 10.2 nM.

Take `CCOc1ccc(N2CCN(S(=O)(=O)C3(C(=O)NO)CCN(CCOC)CC3)CC2)cc1F` [Example 184]: the IC50 was determined as 0.65 nM.

Consider `COCCN1CCC(C(=O)NO)(S(=O)(=O)N2CCN(c3ccc(CCC4CCCC4)cc3)CC2)CC1` [Example 182], for which the IC50 was 0.12 nM.

Turning to `CCc1cnc(N2CCN(S(=O)(=O)C3(C(=O)NO)CCN(CCOC)CC3)CC2)nc1` [Example 187], the IC50 worked out at 78 nM.

Regarding `CCCOc1ccc(N2CCN(S(=O)(=O)C3(C(=O)NO)CCN(CCOC)CC3)CC2)cc1F` [Example 185], the IC50 is 0.59 nM.

Turning to `COCCCc1ccc(N2CCN(S(=O)(=O)C3(C(=O)NO)CCN(CCOC)CC3)CC2)cc1` [Example 180], the IC50 is 2.14 nM.

For `COCCN1CCC(C(=O)NO)(S(=O)(=O)N2CCN(c3ccc(CC4CCC4)cc3)CC2)CC1` [Example 183], the IC50 was determined as 2.31 nM.
